This note sets out measurements from patent US11014934B2, “Antiseptic drug” (AO “TATKHIMFARMPREPARATY”, priority 2017, dated 2021).

Where two headings read alike, the source gives them in different places.

In test [1] the test system is S. aureus 1163 MRSA. Nature of the test: MIC, serial dilutions in Müller-Hinton broth. The test is classed as cell-based. Here is the method: (§1) A comparative assessment of the spectrum of antibacterial action was carried out on archival and clinical strains of gram-positive and gram-negative microorganisms in accordance with the [Opredeleniye chuvstvitel'nosti mikroorganizmov k antibakterial'nym preparatam (Metodicheskiye ukazaniya MUK 4.2.1890-04). Utverzhdeny i vvedeny v deystviye Glavnym gosudarstvennym sanitarnym vrachom Rossiyskoy Federatsii G. G. Onishchenko 04.03.2004 g. Determination of the sensitivity of microorganisms to antibacterial drugs (Guidelines MUK 4.2.1890-04). Approved and put into effect by the Chief State Sanitary Doctor of the Russian Federation G. G. Onishchenko on 4 Mar. 2004].
(§2) The value of the minimum inhibitory concentration (MIC) was determined by the method of serial dilutions on Müller-Hinton broth using 96-well sterile plates. Two-fold dilutions of the test substances in a nutrient medium were prepared. The final concentrations were 1-128 ug/ml. The growth of cultures was assessed visually, comparing the growth of microorganisms in the presence of test compounds with the growth of culture without them. […] The first lowest concentration of the studied substance (from a series of consecutive dilutions), where bacterial growth is not visually determined, is considered to be the minimum inhibitory concentration (MIC). MIC was determined by the method of serial dilutions in broth with increment=2, so the differences of neighboring dilutions are not considered to be significant. In each experience there is a positive (broth with growing culture) and a negative (broth without growing culture) control.
(§3) To determine the MIC, 10 μl of culture medium was taken from those wells in which growth was not observed, and inoculation was performed on a dense Müller-Hinton broth. For the preparation of the inoculum, a pure, daily culture of gram-positive and gram-negative microorganisms grown on a dense nutrient medium was used. Nutrient medium is Müller-Hinton broth, which was prepared from dry media (Müller-Hinton broth, Acumedia, Baltimore), cultivation was carried out on agarized Müller-Hinton broth, including an additional 2% agar. The media were autoclaved at 121° C. for 15 minutes. In a sterile isotonic solution of sodium chloride, a suspension of microorganisms was prepared, adjusting the inoculum density to 0.5 according to the McFarland standard (1.5·10^8 CFU/ml). Then, the resulting inoculum was diluted to a concentration of 10^7 CFU/ml with Müller-Hinton broth. The inoculum was used within 15 minutes after preparation; the purity of the bacterial strains was monitored before each experiment.
(§4) 100 μl of Müller-Hinton broth was added to the wells of each plate; The tested substance was introduced into the first well at a concentration of 128 μg/ml in a volume of 100 μl and its concentration was adjusted to 0.5 μg/ml by consecutive two-fold dilution. Then, the prepared inoculum (100 μI) was added to each well, thereby diluting twice the concentration of the studied compounds. […] In addition, the purity of nutrient media and solvents was monitored. The plates were incubated in a thermostat at 37° C. for 24 hours. The growth of cultures was assessed visually, comparing the growth of microorganisms in the presence of test compounds with the growth of culture without them.
(§5) For the MIC was taken the minimum concentration of the studied compounds, providing complete suppression of the visible growth of the studied strains of microorganisms. The maximum value obtained in three independent experiments was taken as the MIC of the compound.

Test [2] concerns E. faecium 32. The test can be described thus: MIC, serial dilutions in Müller-Hinton broth. Type of test: cell-based. Here is the method: as §1, §2, §3, §4, §5
In test [3] the test system is Ps. aeruginosa 1959. The test can be described thus: MIC, serial dilutions in Müller-Hinton broth. The test is classed as cell-based. On the procedure: as §1, §2, §3, §4, §5
For test [4], the system named is E. faecalis 3060. The test can be described thus: MIC, serial dilutions in Müller-Hinton broth. The test is classed as cell-based. Here is the method:
as §1, §2, §3, §4, §5

Test [5] deals with E. coli CDC F-50. The test can be described thus: Antiseptic activity on rat skin. Type of test: in vivo. The following applies: E. coli CDC F-50 on rat skin; antiseptic concentration 0.2%; exposure time 5 min; n = 6. On the procedure:
The study of the antiseptic activity of compound I in rats […] was carried out in accordance with [R 4.2.2643-10 Metody laboratornykh issledovaniy i ispytaniy mediko-profilakticheskikh dezinfektsionnykh sredstv dlya otsenki ikh effektivnosti i bezopasnosti: Rukovodstvo.—M: Federal'nyy tsentr gigiyeny i epidemiologii Rospotrebnadzora, 2010.—S. 615. R 4.2.2643-10 Laboratory methods for the study and testing of medical prophylactic disinfectants to assess their effectiveness and safety: Guide.—M.:: Federal Center for Hygiene and Epidemiology of Rospotrebnadzor, 2010.—P. 615]. Experiments were carried out on male Wistar rats with a body weight of 180-250 g.
A culture of E. coli CDC F-50, grown on dense nutrient medium for (18-20) hours, was washed with sterile isotonic chloride solution, centrifuged at 5000 rpm for 5 minutes, the supernatant was drained and cells were resuspended with sterile isotonic sodium chloride solution.
The bacterial suspension of microorganisms was brought to a turbidity of […] according to McFarland, which corresponds to a concentration of 1.5×10^7 cells/ml.
Animals were formed in 5 groups of 6 animals each. All manipulations with animals were performed under isoflurane anesthesia (4%—induction of anesthesia (2 min, 1 l/min), 2%—basis narcosis). A portion of 5×5 cm was shaved with a hair clipper on the dorsal part of the body of the animal.
A 0.25 ml microbial suspension containing 1×10^7 CFU of E. coli CDC F-50 was applied to the shaved portion of the rat back with a dispenser and distributed with a sterile disposable spatula over the entire square area. It was left for 2-3 minutes until dry.
Then, a gauze cloth (5×5 cm) was applied to the skin of rats for 5 minutes. In the experimental group, the tissue was pre-wetted with 1 ml of 0.2% solution of compound I, and in the positive control groups, the tissue was dipped in 1 ml of 0.2% miramistin, benzalkonium chloride and chlorhexidine. In the negative control group, the cloth was immersed in 1 ml of sterile saline. […]
After the time required for the cultivation of microorganisms of this species, the results were counted according to the number of colonies grown on the Petri dish. […] After counting the number of colonies grown on Petri dishes, the density of contamination per 1 cm^2 of the surface and the percentage of disinfection were calculated, taking the number of colonies removed from control surfaces and not exposed to antiseptics action as 100%. The percentage of growth inhibition of E. coli CDC F-50 was calculated by the formula: […]

As to `CCCCCCCCCCCC[N+](C)(C)Cc1cnc(C[N+](C)(C)CCCCCCCCCCCC)c2c1COC(CC)O2` (stereo not drawn) [Compound I, 5,8-(Bis(methylene (N, N-dimethyl-N-dodecylammonium))-2-ethyl-4H-[1,3]dioxino [4,5-c]pyridiniumdichloride], the minimal inhibitory concentration (MIC) in test [1] (Staphylococcus aureus, S. aureus 1163 MRSA, inoculum 10^7 CFU/ml, read-out: MIC) worked out at 4 µg/mL; in test [2] (Enterococcus faecium, E. faecium 32, inoculum 10^7 CFU/ml, read-out: MIC), 0.03 µg/mL; in test [3] (Pseudomonas aeruginosa, Ps. aeruginosa 1959, inoculum 10^7 CFU/ml, read-out: MIC), 32 µg/mL; in test [4] (Enterococcus faecalis, E. faecalis 3060, inoculum 10^7 CFU/ml, read-out: MIC) it was 1 µg/mL. For the same molecule, the “Growth inhibition rate (M ± SD)” value in test [5] stood at 97.5 ± 1.7%.

Turning to “alkyldimethyl(phenylmethyl) ammonium chloride [Benzalconium chloride]”, the MIC is 4 µg/mL in test [1] (S. aureus 1163 MRSA, inoculum 10^7 CFU/ml); less than 0.5 µg/mL in test [2] (E. faecium 32, inoculum 10^7 CFU/ml); greater than 64 µg/mL in test [3] (Ps. aeruginosa 1959, inoculum 10^7 CFU/ml); 4 µg/mL in test [4] (E. faecalis 3060, inoculum 10^7 CFU/ml). The “Growth inhibition rate (M ± SD)” value in test [5] was found to be 96.8 ± 2.0%.

In the case of `CCCCCCCCCCCCCC(=O)NCCC[N+](C)(C)Cc1ccccc1.O.[Cl-]` [Miramistin, benzyldimethyl [3-(myristoylamino)propyl]-ammonium chloride monohydrate], the minimum inhibitory concentration (MIC) is 4 µg/mL in test [1] (Staphylococcus aureus, MRSA); less than 0.5 µg/mL in test [2] (Enterococcus faecium, 32); 64 µg/mL in test [3] (Pseudomonas aeruginosa, 1959); 8 µg/mL in test [4] (Enterococcus faecalis, 3060). Further, in test [5], the “Growth inhibition rate (M ± SD)” value came out at 97.2 ± 1.8%.

The MIC is the lowest concentration found to suppress growth.
